Calls of active or inactive are those of the source.
Legend:
[1] = molecular target: Tyrosine-protein phosphatase non-receptor type 6 (Homo sapiens) (UniProt P29350); test: Increase of GST-tagged full length Shp1 activity expressed in Escherichia coli BL21 at 10 uM after 30 mins
[2] = molecular target: Dual specificity protein phosphatase 3 (Homo sapiens) (UniProt P51452); test: Increase of GST-tagged full length Vhr activity expressed in Escherichia coli BL21 at 10 uM after 30 mins
[3] = molecular target: T1, Tyrosine-protein phosphatase non-receptor type 7 (Homo sapiens) (UniProt P35236); test: Increase of GST-tagged full length HePTP activity expressed in Escherichia coli BL21 at 10 uM after 30 mins
T1 sequence (whole entry): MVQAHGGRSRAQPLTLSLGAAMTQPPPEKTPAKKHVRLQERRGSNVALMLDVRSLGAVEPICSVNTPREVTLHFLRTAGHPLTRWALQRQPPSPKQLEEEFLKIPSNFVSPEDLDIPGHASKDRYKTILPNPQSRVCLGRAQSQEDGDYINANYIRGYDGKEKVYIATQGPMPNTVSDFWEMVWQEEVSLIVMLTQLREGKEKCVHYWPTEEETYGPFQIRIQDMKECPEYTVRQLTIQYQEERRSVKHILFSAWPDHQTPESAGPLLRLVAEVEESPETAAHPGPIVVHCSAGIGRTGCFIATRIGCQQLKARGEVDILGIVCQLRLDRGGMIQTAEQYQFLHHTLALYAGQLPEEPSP

Measured: Activity

Sequence of Tyrosine-protein phosphatase non-receptor type 6 (Homo sapiens) (P29350 whole entry): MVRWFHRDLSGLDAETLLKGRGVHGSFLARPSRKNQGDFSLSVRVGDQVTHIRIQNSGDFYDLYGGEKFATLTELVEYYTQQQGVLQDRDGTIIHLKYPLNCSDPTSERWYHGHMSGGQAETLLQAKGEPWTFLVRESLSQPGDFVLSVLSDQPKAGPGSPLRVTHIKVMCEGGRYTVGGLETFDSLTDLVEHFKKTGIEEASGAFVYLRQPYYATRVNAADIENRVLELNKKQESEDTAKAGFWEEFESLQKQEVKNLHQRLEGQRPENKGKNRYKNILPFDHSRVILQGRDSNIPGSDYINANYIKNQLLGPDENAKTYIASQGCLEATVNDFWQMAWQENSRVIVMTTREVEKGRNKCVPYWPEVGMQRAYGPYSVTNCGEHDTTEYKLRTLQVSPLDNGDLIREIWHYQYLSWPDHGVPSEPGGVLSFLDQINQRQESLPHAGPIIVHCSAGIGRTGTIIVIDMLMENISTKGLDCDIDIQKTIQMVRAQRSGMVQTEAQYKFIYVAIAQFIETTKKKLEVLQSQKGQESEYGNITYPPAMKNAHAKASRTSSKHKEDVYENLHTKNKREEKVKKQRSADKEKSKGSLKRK
Sequence of Dual specificity protein phosphatase 3 (Homo sapiens) (P51452 whole entry, looked up): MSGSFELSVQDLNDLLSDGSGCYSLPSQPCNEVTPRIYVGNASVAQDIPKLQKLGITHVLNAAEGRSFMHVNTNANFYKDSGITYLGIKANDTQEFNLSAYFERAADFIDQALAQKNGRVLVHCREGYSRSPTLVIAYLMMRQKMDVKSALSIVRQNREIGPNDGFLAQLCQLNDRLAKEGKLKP

CC1(C)CC[C@]2(C(=O)O)CC[C@]3(C)C(=CC[C@@H]4[C@@]5(C)CC[C@H](O)C(C)(C)[C@@H]5CC[C@]43C)[C@@H]2C1
inactive: all assays above

— ChEMBL document CHEMBL1641441, “A novel screening model for the molecular drug for diabetes and obesity based on tyrosine phosphatase Shp2” (Bioorg Med Chem Lett, 2011)
